The values below come from patent US20240043439A1, “COMPOUNDS AS C5AR INHIBITORS” (Kira Pharmaceuticals (Suzhou) Ltd., priority 2020, published 2024).

Assay [1] addresses C5aR (Homo sapiens (Human), UniProt P21730). Put plainly: Calcium mobilization (U937/C5aR or HEK293/C5aR cells, FLIPR). The format is cell-based. The settings on record: agonist human C5a at EC80, FLIPR. As to the method: U937/C5aR cells or HEK293/C5aR cells were washed by PBS and suspended in growth media at the density of 1×10^6 cells/ml. […] to the 384-well plate and culture for overnight. Transfer 250 nl compound solution to the cell plate using Echo, incubate for 60 min. Cells were added with Fluo-4 Direct™ dye and incubate for 50 min at 37° C. 5% CO2 and 10 m at room temperature. Place the cell plate into […] (Molecular Devices). Transfer 10 μl of 5-fold EC80 concentrations of agonist human C5a to the cell plates.
A general note: Calcium assays in cells follow changes in intracellular calcium, usually with a dye or a luminescent sensor.

Assay [2] deals with human C5a receptor (C5aR) (Homo sapiens (Human), UniProt P21730). Put plainly: Inhibition of C5a-C5aR binding (biotinylated human C5a, U937/C5aR cells, FACS). As to the method:
U937 cells were originally obtained from the American Type Culture Collection (ATCC) and transfected with human C5a receptor (C5aR). U937/C5aR cells were cultured at 37° C., 5% CO2 in RPMI1640 (Gibco) supplemented with 10% FBS (Gibco) and 350 µg/ml Geneticin (Gibco) and passaged every 3 days to maintain the density range from […] to 2×10^6 cells/ml.
Human C5a biotinylation was performed according to the procedure provided by manufacturer (Thermo Scientific, A39257). 10 mM solution of Sulfo-NHS-LC-Biotin was prepared by adding 180μl ultrapure H2O to the 1 mg vial immediately. 12 μl 10 mM biotin reagent was added to […] human C5a solution, gently pipetted for 3 seconds, and incubated on ice for 2 hours. Amicon ultra-0.5 centrifuge filter device (Millipore, UFC5003BK) was pre-rinsed with Milli-Q H2O, centrifuged at 14000 g for 5 min immediately before use. Up to […] sample (diluted by PBS) was added to the device and capped. The device was spinned at 14000 g for approximately 5 min. 250 μl PBS was added to the filter device, spinned at 14000 g for 5 min, and repeatedly washed 6 times. The filter device was separated from the microcentrifuge tube and placed upside down in a clean microcentrifuge tube, spinned for 2 min at 1000 g to transfer the concentrated sample from the device to the tube.
U937/C5aR cells were collected and washed twice by PBS, cells were suspended in PBS+0.1% BSA buffer at the density of 3×10^6 cells/ml. 100 μl cell suspension was added to a 96 well microplate. 50 μl compound diluted in assay buffer and 50 μl biotinylated ligand human C5a (30 nM) were added to corresponding wells in order and the plate was incubated on ice for 120 min and then centrifuged at 1000 rpm for 3-5 min at 4° C. Supernatant was removed and cells were washed by pre-cold PBS twice. 100 μl FITC conjugated streptavidin was added to cells, incubated on ice for another 30 min, and then centrifuged at 1000 rpm for 3-5 min at 4° C. Supernatant was removed and cells were washed by pre-cold PBS twice. 150 μl PBS was added to suspend the cells and signals were detected by FACS (Beckman, Cytoflex).

Structures are written as SMILES. pIC50: −log10 of the molar value.

Sequence of human C5a receptor (C5aR) (P21730 whole entry): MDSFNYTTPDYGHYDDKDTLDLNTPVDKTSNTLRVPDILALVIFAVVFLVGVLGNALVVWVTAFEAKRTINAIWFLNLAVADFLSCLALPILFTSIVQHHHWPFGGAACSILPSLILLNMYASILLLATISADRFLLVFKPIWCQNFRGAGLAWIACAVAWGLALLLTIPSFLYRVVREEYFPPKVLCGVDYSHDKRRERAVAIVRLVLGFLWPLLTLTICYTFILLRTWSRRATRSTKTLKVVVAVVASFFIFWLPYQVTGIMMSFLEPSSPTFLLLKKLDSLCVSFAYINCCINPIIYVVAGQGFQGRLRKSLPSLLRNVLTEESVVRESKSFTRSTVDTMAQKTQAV
Sequence of C5aR (P21730 whole entry): as above

For the compound `Cc1cccc(F)c1C(=O)N1C2CCC[C@@H]2C[C@H](C(=O)Nc2cccc(F)c2)[C@@H]1c1ccc(NC2CCCC2)cc1` (mixture of isomers) [Compound 56, cis-2-(4-(cyclopentylamino)phenyl)-1-(2-fluoro-6-methylbenzoyl)-N-(3-fluorophenyl)octahydro-1H-cyclopenta[b]pyridine-3-carboxamide], the pIC50 (usually the negative decadic logarithm of the IC50, by convention in mol/L) is 6.30 to 7.30 in assay [1] and over 7.30 in assay [2].

Take `Cc1cccc(F)c1C(=O)N1C2CCC[C@@H]2C[C@H](C(=O)Nc2ccc3ncn(C)c3c2)[C@@H]1c1ccc(NC2CCCC2)cc1` (mixture of isomers) [Compound 74, cis-2-(4-(cyclopentylamino)phenyl)-1-(2-fluoro-6-methylbenzoyl)-N-(1-methyl-1H-benzo[d]imidazol-6-yl)octahydro-1H-cyclopenta[b]pyridine-3-carboxamide]: the figures for the pIC50 in assay [1] and in assay [2] were under 5.00 and 5.30 to 5.70, respectively.

On to `Cc1ccc(NC(=O)[C@H]2C[C@H]3COCC3N(C(=O)c3c(C)cccc3F)[C@H]2c2ccc(NC3CCOCC3)cc2)cc1C(F)(F)F` (mixture of isomers) [Compound 135, cis-1-(2-fluoro-6-methylbenzoyl)-N-(4-methyl-3-(trifluoromethyl)phenyl)-2-(4-((tetrahydro-2H-pyran-4-yl)amino)phenyl)octahydrofuro[3,4-b]pyridine-3-carboxamide], for which the pIC50 is 5.70 to 6.30 in assay [1] and 6.30 to 7.30 in assay [2].

`Cc1cccc(F)c1C(=O)N1C2COC[C@@H]2C[C@H](C(=O)Nc2ccc(N(C)C)cc2)[C@@H]1c1ccc(NC2CCOCC2)cc1` (mixture of isomers) [Compound 136, cis-N-(4-(dimethylamino)phenyl)-1-(2-fluoro-6-methylbenzoyl)-2-(4-((tetrahydro-2H-pyran-4-yl)amino)phenyl)octahydrofuro[3,4-b]pyridine-3-carboxamide]: the pIC50 in assay [1] is 5.00 to 5.70; in assay [2], 5.30 to 5.70.

Take `Cc1ncc(NC(=O)[C@H]2C[C@H]3CCC[C@H]3N(C(=O)c3c(C)cccc3F)[C@H]2c2ccc(NC3CCCC3)cc2)cn1` (racemic) [Compound 58, cis-2-(4-(cyclopentylamino)phenyl)-1-(2-fluoro-6-methylbenzoyl)-N-(2-methylpyrimidin-5-yl)octahydro-1H-cyclopenta[b]pyridine-3-carboxamide]: the pIC50 in assay [1] and in assay [2] was 6.30 to 7.30 each time.

For the compound `Cc1cccc(F)c1C(=O)N1[C@@H]2CCC[C@@H]2C[C@H](C(=O)Nc2ccc(Cl)c(C(F)(F)F)c2)[C@@H]1c1ccc(NC2CCCC2)cc1` (racemic) [Compound 60, cis-N-(4-chloro-3-(trifluoromethyl)phenyl)-2-(4-(cyclopentylamino)phenyl)-1-(2-fluoro-6-methylbenzoyl)octahydro-1H-cyclopenta[b]pyridine-3-carboxamide], the pIC50 in assay [1] is 6.30 to 7.30; in assay [2] it was 5.30 to 5.70.

With `Cc1ccc(NC(=O)[C@H]2C[C@H]3CCC[C@H]3N(C(=O)c3c(C)cccc3F)[C@H]2c2ccc(NC3CCCC3)cc2)cn1` (racemic) [Compound 63, cis-2-(4-(cyclopentylamino)phenyl)-1-(2-fluoro-6-methylbenzoyl)-N-(6-methylpyridin-3-yl)octahydro-1H-cyclopenta[b]pyridine-3-carboxamide], the pIC50 in assay [1] was 5.70 to 6.30; in assay [2], over 7.30.

Consider `Cc1cccc(F)c1C(=O)N1[C@@H]2CCC[C@@H]2C[C@H](C(=O)Nc2ccc(Cl)c(Cl)c2)[C@@H]1c1ccc(NC2CCCC2)cc1` (racemic) [Compound 64, cis-2-(4-(cyclopentylamino)phenyl)-N-(3,4-dichlorophenyl)-1-(2-fluoro-6-methylbenzoyl)octahydro-1H-cyclopenta[b]pyridine-3-carboxamide], for which the pIC50 in assay [1] is 5.00 to 5.70; in assay [2], 5.70 to 6.30.

Consider `Cc1cccc(F)c1C(=O)N1[C@@H]2CCC[C@@H]2C[C@H](C(=O)Nc2ccc(NC=O)c(O)c2)[C@@H]1c1ccc(NC2CCCC2)cc1` (racemic) [Compound 68, cis-2-(4-(cyclopentylamino)phenyl)-1-(2-fluoro-6-methylbenzoyl)-N-(4-formamido-3-hydroxyphenyl)octahydro-1H-cyclopenta[b]pyridine-3-carboxamide], for which the figures for the pIC50 in assay [1] and in assay [2] were 5.70 to 6.30 and 5.30 to 5.70, respectively.

In the case of `Cc1cccc(F)c1C(=O)N1[C@@H]2CCC[C@@H]2C[C@H](C(=O)Nc2ccc3ncsc3c2)[C@@H]1c1ccc(NC2CCCC2)cc1` (racemic) [Compound 69, cis-N-(benzo[d]thiazol-6-yl)-2-(4-(cyclopentylamino)phenyl)-1-(2-fluoro-6-methylbenzoyl)octahydro-1H-cyclopenta[b]pyridine-3-carboxamide], the pIC50 is 5.00 to 5.70 in assay [1] and 6.30 to 7.30 in assay [2].

For the compound `Cc1cccc(F)c1C(=O)N1[C@@H]2CCC[C@@H]2C[C@H](C(=O)Nc2ccc3c(c2)OCCO3)[C@@H]1c1ccc(NC2CCCC2)cc1` (racemic) [Compound 71, cis-2-(4-(cyclopentylamino)phenyl)-N-(2,3-dihydrobenzo[b][1,4]dioxin-6-yl)-1-(2-fluoro-6-methylbenzoyl)octahydro-1H-cyclopenta[b]pyridine-3-carboxamide], the figures for the pIC50 in assay [1] and in assay [2] were 5.00 to 5.70 and over 7.30, respectively.

As for `Cc1cccc(F)c1C(=O)N1C2CCC[C@@H]2C[C@H](C(=O)Nc2cccc(Cl)c2)[C@@H]1c1ccc(NC2CCCC2)cc1` (relative stereo) [Compound 55, cis-N-(3-chlorophenyl)-2-(4-(cyclopentylamino)phenyl)-1-(2-fluoro-6-methylbenzoyl)octahydro-1H-cyclopenta[b]pyridine-3-carboxamide], the negative logarithm of the IC50 (pIC50) was 5.70 to 6.30 in assay [1] and 6.30 to 7.30 in assay [2].

Consider `Cc1cccc(F)c1C(=O)N1[C@@H]2CCC[C@@H]2C[C@H](C(=O)Nc2ccc(F)c(C(F)(F)F)c2)[C@@H]1c1ccc(NC2CCCC2)cc1` (relative stereo) [Compound 61, cis-2-(4-(cyclopentylamino)phenyl)-N-(4-fluoro-3-(trifluoromethyl)phenyl)-1-(2-fluoro-6-methylbenzoyl)octahydro-1H-cyclopenta[b]pyridine-3-carboxamide], for which the negative-log IC50 (pIC50) in assay [1] is 5.00 to 5.70; in assay [2] it was 5.30 to 5.70.

`Cc1cccc(F)c1C(=O)N1[C@@H]2CCC[C@@H]2C[C@H](C(=O)Nc2ccc(F)c(F)c2)[C@@H]1c1ccc(NC2CCCC2)cc1` (relative stereo) [Compound 65, cis-2-(4-(cyclopentylamino)phenyl)-N-(3,4-difluorophenyl)-1-(2-fluoro-6-methylbenzoyl)octahydro-1H-cyclopenta[b]pyridine-3-carboxamide]: the pIC50 in assay [1] and in assay [2] was 6.30 to 7.30 throughout.

For `Cc1ccc(NC(=O)C2C[C@@H]3CCC[C@@H]3N(C(=O)c3c(C)cccc3F)C2c2ccc(NC3CCCC3)cc2)cc1P(C)(C)=O` (relative stereo) [Compound 76, cis-2-(4-(cyclopentylamino)phenyl)-N-(3-(dimethylphosphoryl)-4-methylphenyl)-1-(2-fluoro-6-methylbenzoyl)octahydro-1H-cyclopenta[b]pyridine-3-carboxamide], the results for the pIC50 in assay [1] and in assay [2] were 5.00 to 5.70 and 5.30 to 5.70, respectively.

As to `Cc1cccc(F)c1C(=O)N1C2CCC[C@@H]2C[C@H](C(=O)Nc2ccnc(C(F)(F)F)c2)[C@@H]1c1ccc(NC2CCCC2)cc1` (relative stereo) [Compound 79, cis-2-(4-(cyclopentylamino)phenyl)-1-(2-fluoro-6-methylbenzoyl)-N-(2-(trifluoromethyl)pyridin-4-yl)octahydro-1H-cyclopenta[b]pyridine-3-carboxamide], the figures for the pIC50 in assay [1] and in assay [2] were 5.00 to 5.70 and 5.30 to 5.70, respectively.

As for `Cc1ccc(NC(=O)C2C[C@H]3CCC[C@H]3N(C(=O)c3cn(C)cn3)C2c2ccc(NC3CCCC3)cc2)cc1C(F)(F)F` (relative stereo) [Compound 113, cis-2-(4-(cyclopentylamino)phenyl)-1-(1-methyl-1H-imidazole-4-carbonyl)-N-(4-methyl-3-(trifluoromethyl)phenyl)octahydro-1H-cyclopenta[b]pyridine-3-carboxamide], the pIC50 in assay [1] is under 5.00; in assay [2] it was 5.30 to 5.70.
